Patent US12215101B2, “Pro drugs of PDE10 compounds” (Merck Sharp & Dohme LLC, priority 2021, dated 2025)
pKi: −log10 of the molar value. Converted amounts (≈) assume the structure as drawn.

How the values were obtained:
[1] = Aqueous solubility (slurry in pH 7 buffer, UPLC); assay type: physicochemical; details: aqueous buffer, thermodynamic from solid; pH 7.4 in PBS buffer solution; read-out: Solubility
Procedure: Aqueous solubility of the compounds was measured by suspending, sonicating (30 minutes), and slurrying (2 hours, 1000 rpm) excess solid (typically 5-10 mg) in phosphate buffered saline at pH 7, or equivalent pH 7 buffer. The suspension was then sonicated again for 30 minutes and stirred again at 1000 rpm for at least 6-24 hours. Approximately 400 μL of sample was removed and placed into spin filters. Each sample was spun at 14K rpm for 10 minutes using a 0.45 μm PVDF spin filter. A portion of the filtrate was removed and diluted with 1:1 ACN:H2O. The resultant samples were analyzed using UPLC analysis. Retains of the solids were checked by XRPD to determine if the material was crystalline or amorphous. Solubility of Compound A was measured at 140 μg/mL at pH 7.4 in PBS buffer solution.

human PDE10 enzyme = target: T1, human PDE10 enzyme (Homo sapiens, UniProt Q9Y233); assay: PDE10 fluorescence polarization (IMAP FP) inhibition assay; assay type: biochemical; details: 'generally less than about'
T1 construct: made in house; host or cells: AD293 cells, transiently transfected; the supernatant (cytoplasmic fraction) of the sonicated lysate served as enzyme
Procedure: The activity of the compounds in accordance with the present invention as PDE10 inhibitors may be readily determined without undue experimentation using a fluorescence polarization (FP) methodology that is well known in the art (Huang, W., et al., J. Biomol Screen, 2002, 7: 215).
In a typical experiment the PDE10 inhibitory activity of compounds such as Compound A was determined in accordance with the following experimental method. PDE10A2 was amplified from human fetal brain cDNA (Clontech, Mountain View, CA) using a forward primer corresponding to nucleotides 56-77 of human PDE10A2 (Accession No. AF127480, Genbank Identifier 4894716), containing a Kozak consensus sequence, and a reverse primer corresponding to nucleotides 2406-2413 of human PDE10A2 (Accession No. AF127480, Genbank Identifier 4894716). Amplification with Easy-A polymerase (Stratagene, La Jolla, CA) was 95° C. for 2 minutes followed by thirty three cycles of 95° C. for 40 seconds, 55° C. for 30 seconds, and 72° C. for 2 minutes 48 seconds. Final extension was 72° C. for 7 minutes. […] The fluorescence polarization assay for cyclic nucleotide phosphodiesterases was performed using an IMAP® FP kit supplied by Molecular Devices, Sunnyvale, CA (product #R8139). […] 0% of inhibition is determined by using DMSO (1% final concentrations). […]

T1 sequence (Q9Y233 267-1055): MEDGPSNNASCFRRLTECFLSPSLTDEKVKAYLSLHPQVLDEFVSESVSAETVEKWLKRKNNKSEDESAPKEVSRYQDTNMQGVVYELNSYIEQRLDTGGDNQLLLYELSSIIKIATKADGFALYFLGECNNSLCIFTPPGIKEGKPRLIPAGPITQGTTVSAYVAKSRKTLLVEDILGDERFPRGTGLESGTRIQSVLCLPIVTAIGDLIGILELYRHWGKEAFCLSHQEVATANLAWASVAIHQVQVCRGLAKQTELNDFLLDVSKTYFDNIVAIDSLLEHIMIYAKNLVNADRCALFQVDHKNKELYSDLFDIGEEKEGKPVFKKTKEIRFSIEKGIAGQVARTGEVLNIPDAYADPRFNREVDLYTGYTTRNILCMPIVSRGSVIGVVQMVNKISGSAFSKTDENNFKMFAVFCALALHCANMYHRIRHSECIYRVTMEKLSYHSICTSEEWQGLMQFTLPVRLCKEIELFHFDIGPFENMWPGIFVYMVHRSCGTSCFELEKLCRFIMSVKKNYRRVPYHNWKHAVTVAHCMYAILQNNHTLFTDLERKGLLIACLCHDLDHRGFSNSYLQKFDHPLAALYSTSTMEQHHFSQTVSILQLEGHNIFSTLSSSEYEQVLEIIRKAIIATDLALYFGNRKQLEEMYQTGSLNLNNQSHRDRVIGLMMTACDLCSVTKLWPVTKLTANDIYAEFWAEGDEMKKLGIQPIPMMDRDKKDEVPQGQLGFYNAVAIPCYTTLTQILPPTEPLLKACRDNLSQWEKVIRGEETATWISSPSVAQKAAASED

## Cc1ccc([C@H]2C[C@@H]2COc2cc(NCc3nnc(C)s3)nc(C)n2)nc1 [Compound A, 2-methyl-N-((5-methyl-1,3,4-thiadiazol-2-yl)methyl)-6-(((1S,2S)-2-(5-methylpyridin-2-yl)cyclopropyl)methoxy)pyrimidin-4-amine, reference compound]
[1]
  solubility: 140 µg/mL (≈ 366 µM)
Human PDE10 enzyme
  pKi: > 6.00
